Experimental data: the Kinase Knowledgebase extract (Sharma et al. 2016)

Assays:
[1] = biological target: PIK3CA (human) (UniProt P42336); assay: Enzyme Assay
[2] = biological target: PIK3CD (Human) (UniProt O00329); assay: Enzyme Assay
[3] = biological target: PIK3CG (human) (UniProt P48736); assay: Enzyme Assay
[4] = biological target: PIK3CA (human) (UniProt P42336); assay: Cell-Based Assay; settings: rat-1
[5] = biological target: PIK3CD (Human) (UniProt O00329); assay: Cell-Based Assay; settings: rat-1
[6] = biological target: PIK3CG (human) (UniProt P48736); assay: Cell-Based Assay; settings: u937

Sequence of PIK3CD (Human) (O00329 whole entry, looked up): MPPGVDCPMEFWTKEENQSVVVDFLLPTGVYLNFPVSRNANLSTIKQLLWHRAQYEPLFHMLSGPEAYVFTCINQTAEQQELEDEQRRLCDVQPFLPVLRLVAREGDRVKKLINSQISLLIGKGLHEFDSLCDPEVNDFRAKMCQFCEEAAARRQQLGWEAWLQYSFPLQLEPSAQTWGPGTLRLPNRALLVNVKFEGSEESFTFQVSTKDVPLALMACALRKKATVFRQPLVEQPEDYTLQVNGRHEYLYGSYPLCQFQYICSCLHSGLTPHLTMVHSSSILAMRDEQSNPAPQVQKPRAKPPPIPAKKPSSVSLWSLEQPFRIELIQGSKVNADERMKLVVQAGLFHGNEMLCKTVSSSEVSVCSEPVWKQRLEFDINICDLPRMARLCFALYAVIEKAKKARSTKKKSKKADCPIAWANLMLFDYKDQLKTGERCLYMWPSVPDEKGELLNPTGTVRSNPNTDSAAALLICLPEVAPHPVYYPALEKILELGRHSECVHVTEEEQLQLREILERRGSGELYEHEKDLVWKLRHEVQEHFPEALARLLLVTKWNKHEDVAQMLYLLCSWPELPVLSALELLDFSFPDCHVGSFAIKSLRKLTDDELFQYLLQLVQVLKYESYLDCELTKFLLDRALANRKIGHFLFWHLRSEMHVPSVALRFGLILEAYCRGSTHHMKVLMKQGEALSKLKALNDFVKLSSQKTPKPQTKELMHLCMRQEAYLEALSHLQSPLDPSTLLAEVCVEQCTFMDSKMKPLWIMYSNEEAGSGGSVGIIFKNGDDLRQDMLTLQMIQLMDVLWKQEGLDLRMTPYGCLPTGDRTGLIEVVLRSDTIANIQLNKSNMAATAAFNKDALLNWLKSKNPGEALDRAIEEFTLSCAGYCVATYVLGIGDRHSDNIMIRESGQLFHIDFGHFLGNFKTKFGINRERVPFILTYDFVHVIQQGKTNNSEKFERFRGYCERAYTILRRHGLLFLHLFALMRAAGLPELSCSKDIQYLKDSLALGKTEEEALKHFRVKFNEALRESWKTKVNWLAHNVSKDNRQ
Sequence of PIK3CG (human) (P48736 whole entry, looked up): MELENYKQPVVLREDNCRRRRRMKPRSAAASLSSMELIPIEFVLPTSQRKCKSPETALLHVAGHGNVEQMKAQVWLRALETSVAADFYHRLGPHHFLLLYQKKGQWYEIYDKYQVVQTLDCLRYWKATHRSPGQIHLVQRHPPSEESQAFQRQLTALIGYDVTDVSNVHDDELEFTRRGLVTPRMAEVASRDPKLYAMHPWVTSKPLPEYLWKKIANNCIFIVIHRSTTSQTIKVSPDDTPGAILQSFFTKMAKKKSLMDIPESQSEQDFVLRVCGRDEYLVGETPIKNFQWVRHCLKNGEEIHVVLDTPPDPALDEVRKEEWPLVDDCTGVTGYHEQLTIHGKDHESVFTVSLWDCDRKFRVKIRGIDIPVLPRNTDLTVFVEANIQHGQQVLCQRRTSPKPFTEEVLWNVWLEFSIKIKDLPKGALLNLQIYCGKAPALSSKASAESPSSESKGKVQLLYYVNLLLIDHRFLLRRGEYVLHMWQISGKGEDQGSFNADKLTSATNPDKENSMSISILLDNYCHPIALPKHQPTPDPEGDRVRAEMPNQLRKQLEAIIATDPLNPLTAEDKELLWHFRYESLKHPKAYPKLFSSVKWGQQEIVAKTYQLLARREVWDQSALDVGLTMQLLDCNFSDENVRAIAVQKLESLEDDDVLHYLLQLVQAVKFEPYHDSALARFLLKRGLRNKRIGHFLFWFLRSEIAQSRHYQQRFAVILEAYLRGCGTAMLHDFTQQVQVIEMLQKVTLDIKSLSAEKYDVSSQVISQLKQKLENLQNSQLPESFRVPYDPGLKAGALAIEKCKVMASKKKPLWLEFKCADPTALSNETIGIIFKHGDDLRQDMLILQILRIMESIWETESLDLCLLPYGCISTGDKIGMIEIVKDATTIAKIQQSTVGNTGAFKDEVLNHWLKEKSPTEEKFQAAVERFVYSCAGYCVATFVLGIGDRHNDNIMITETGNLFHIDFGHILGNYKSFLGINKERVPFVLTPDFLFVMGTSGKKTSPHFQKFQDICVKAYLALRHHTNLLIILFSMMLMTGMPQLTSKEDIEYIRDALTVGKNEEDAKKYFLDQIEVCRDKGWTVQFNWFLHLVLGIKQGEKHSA
Sequence of PIK3CA (human) (P42336 whole entry, looked up): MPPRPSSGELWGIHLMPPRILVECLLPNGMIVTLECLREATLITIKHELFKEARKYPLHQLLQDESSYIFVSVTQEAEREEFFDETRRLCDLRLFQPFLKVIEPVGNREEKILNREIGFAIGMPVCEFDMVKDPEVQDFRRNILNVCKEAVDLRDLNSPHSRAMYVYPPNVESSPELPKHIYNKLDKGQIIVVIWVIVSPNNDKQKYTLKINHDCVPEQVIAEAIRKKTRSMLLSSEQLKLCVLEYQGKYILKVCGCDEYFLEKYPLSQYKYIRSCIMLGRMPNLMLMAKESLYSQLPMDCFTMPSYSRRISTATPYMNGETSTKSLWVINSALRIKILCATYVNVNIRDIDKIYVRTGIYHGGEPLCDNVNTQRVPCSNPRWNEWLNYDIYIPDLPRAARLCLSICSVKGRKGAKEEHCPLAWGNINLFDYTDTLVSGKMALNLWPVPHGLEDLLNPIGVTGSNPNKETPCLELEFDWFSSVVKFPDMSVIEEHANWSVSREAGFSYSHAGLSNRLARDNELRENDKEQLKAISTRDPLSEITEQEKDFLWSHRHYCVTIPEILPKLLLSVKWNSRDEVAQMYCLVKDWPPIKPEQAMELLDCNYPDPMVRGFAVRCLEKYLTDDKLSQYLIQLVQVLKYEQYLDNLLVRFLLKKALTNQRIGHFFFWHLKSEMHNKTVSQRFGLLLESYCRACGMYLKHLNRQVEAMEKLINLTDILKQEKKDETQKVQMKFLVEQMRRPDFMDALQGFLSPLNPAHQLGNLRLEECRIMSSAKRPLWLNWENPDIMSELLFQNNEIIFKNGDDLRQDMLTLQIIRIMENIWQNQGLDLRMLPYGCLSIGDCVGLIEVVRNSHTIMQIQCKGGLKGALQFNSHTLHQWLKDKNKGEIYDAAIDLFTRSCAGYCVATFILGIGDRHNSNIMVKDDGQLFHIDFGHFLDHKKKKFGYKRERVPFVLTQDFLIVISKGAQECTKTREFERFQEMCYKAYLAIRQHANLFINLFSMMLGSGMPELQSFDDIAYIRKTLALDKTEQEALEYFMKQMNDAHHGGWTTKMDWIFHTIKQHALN

Compound | IC50 [1] | IC50 [2] | IC50 [3] | IC50 [4] | IC50 [5] | IC50 [6]
Cc1nc(N)nc(N2CCC[C@H]2c2nc3cccc(C(F)(F)F)c3c(=O)n2-c2cncnc2)c1C#N | 4200 nM | 100 nM | 230 nM | > 10000 nM | 295 nM | 306 nM
N#Cc1c(C(F)F)nc(N)nc1N1C[C@@H](O)C[C@H]1c1nc2cccc(C(F)(F)F)c2c(=O)n1-c1ccccc1 | > 10000 nM | 220 nM | 58 nM | > 10000 nM | 517 nM | 187 nM
CO[C@H]1C[C@@H](c2nc3cccc(Cl)c3c(=O)n2-c2ccccc2)N(c2ncnc(N)c2C#N)C1 | 1300 nM | 4 nM | 35 nM | 4040 nM | 10 nM | 209 nM
Nc1nc(N2C[C@@H](O)C[C@H]2c2nc3cccc(C(F)(F)F)c3c(=O)n2-c2ccccc2)c2ncsc2n1 | 2500 nM | 27 nM | 37 nM | 5310 nM | 89 nM | 55 nM
CO[C@H]1C[C@@H](c2nc3cccc(C(F)(F)F)c3c(=O)n2-c2ccccc2)N(c2nc(N)nc(C)c2C#N)C1 | 2100 nM | 24 nM | 107 nM | – | 182 nM | 227 nM
N#Cc1c(N)ncnc1N1C[C@@H](O)C[C@H]1c1nc2cccc(Cl)c2c(=O)n1-c1ccccc1 | 1000 nM | 4 nM | 50 nM | 2850 nM | < 3 nM | 268 nM
Cn1cnc2c(N3CCC[C@H]3c3nc4cccc(Cl)c4c(=O)n3-c3ccccc3)nc(N)nc21 | 3700 nM | 52 nM | 305 nM | > 10000 nM | 110 nM | 216 nM
N#Cc1c(N)ncnc1N1C[C@@H](F)C[C@H]1c1nc2cccc(C(F)(F)F)c2c(=O)n1-c1ccccc1 | 2400 nM | 8 nM | 55 nM | 766 nM | 10 nM | 31 nM
O=c1c2c(C(F)(F)F)cccc2nc([C@@H]2C[C@H](O)CN2c2ncnc3[nH]cnc23)n1-c1ccccc1 | 1400 nM | 16 nM | 210 nM | 7220 nM | 91 nM | 34 nM
Cc1nc(N)nc(N2CCC[C@H]2c2nc3cccc(C(F)(F)F)c3c(=O)n2-c2cncc(F)c2)c1C#N | 4500 nM | 50 nM | 240 nM | 8740 nM | 56 nM | 92 nM
N#Cc1c(N)ncnc1N1CCC[C@H]1c1nc2cccc(F)c2c(=O)n1-c1ccccc1 | 3000 nM | 19 nM | 650 nM | > 10000 nM | < 3 nM | 148 nM
Cc1nc(N)nc(N2C[C@@H](F)C[C@H]2c2nc3cccc(C(F)(F)F)c3c(=O)n2-c2cccc(F)c2)c1C#N | 910 nM | 14 nM | 42 nM | 3410 nM | 14 nM | 42 nM
Nc1nc(N2CCC[C@H]2c2nc3cccc(C(F)(F)F)c3c(=O)n2-c2ccccc2)c2ncsc2n1 | 1700 nM | 48 nM | 87 nM | > 10000 nM | 110 nM | 40 nM
Cc1nc(N)nc(N2C[C@@H](O)C[C@H]2c2nc3cccc(C(F)(F)F)c3c(=O)n2N2CCOCC2)c1C#N | 2000 nM | 66 nM | 100 nM | 4590 nM | 92 nM | 83 nM
Nc1nc(N2CCC[C@H]2c2nc3cccc(C(F)(F)F)c3c(=O)n2-c2cncc(F)c2)c2nc[nH]c2n1 | > 10000 nM | 160 nM | 320 nM | > 10000 nM | 164 nM | 324 nM
N#Cc1c(N)ncnc1N1CCC[C@H]1c1nc2ccc(F)c(C(F)(F)F)c2c(=O)n1-c1ccccc1 | 4200 nM | 13 nM | 500 nM | – | – | 211 nM
Cn1cnc2c(N3CCC[C@H]3c3nc4cccc(Cl)c4c(=O)n3N3CCOCC3)nc(N)nc21 | 5250 nM | 2500 nM | 505 nM | – | 476 nM | 2360 nM
Cc1nc(N)nc(N2C[C@@H](O)C[C@H]2c2nc3cccc(C(F)(F)F)c3c(=O)n2-c2cc(F)cc(F)c2)c1C#N | 3100 nM | 97 nM | 890 nM | 8840 nM | 42 nM | 60 nM
Cc1nc(N)nc(N2C[C@@H](F)C[C@H]2c2nc3cccc(C(F)(F)F)c3c(=O)n2-c2cccnc2)c1C#N | 1300 nM | 26 nM | 35 nM | 4200 nM | 23 nM | 53 nM
CO[C@H]1C[C@@H](c2nc3cccc(C(F)(F)F)c3c(=O)n2-c2ccccc2)N(c2ncnc(N)c2C#N)C1 | 7600 nM | 18 nM | 460 nM | – | 35 nM | 671 nM
COc1ccc(-n2c([C@@H]3CCCN3c3nc(N)nc4[nH]cnc34)nc3cccc(Cl)c3c2=O)cn1 | 8400 nM | 270 nM | 220 nM | > 10000 nM | 651 nM | –
Cc1ccc(-n2c([C@@H]3CSCN3c3ncnc4[nH]cnc34)nc3cccc(Cl)c3c2=O)s1 | > 10000 nM | 140 nM | 820 nM | > 10000 nM | 509 nM | –
N#Cc1c(N)ncnc1N1CCC[C@H]1c1nc2cccc(Cl)c2c(=O)n1C1CCCCC1 | > 10000 nM | 16 nM | 1100 nM | > 10000 nM | 13 nM | –
CN(C)n1c([C@@H]2CCCN2c2nc(N)nc3[nH]cnc23)nc2cccc(Cl)c2c1=O | 1200 nM | 110 nM | 780 nM | 2860 nM | 128 nM | –
Cc1ccccc1-n1c([C@@H]2CSCN2c2ncnc(N)c2C#N)nc2cccc(Cl)c2c1=O | 6820 nM | 11 nM | 148 nM | 4470 nM | 38 nM | –
O=c1c2c(Cl)cccc2nc([C@@H]2CSCN2c2ncnc3[nH]cnc23)n1-c1ccccc1 | 2940 nM | 18 nM | 202 nM | > 10000 nM | 57 nM | –
N#Cc1c(N)ncnc1N1CCC[C@H]1c1nc2ccc(F)c(F)c2c(=O)n1-c1ccccc1 | 5550 nM | 90 nM | 2300 nM | > 10000 nM | < 3 nM | –
N#Cc1c(N)ncnc1N1C[C@@H](O)C[C@H]1c1nc2cccc(C(F)(F)F)c2c(=O)n1-c1ccccc1 | 1800 nM | 8 nM | 66 nM | > 10000 nM | 3 nM | –

Next, values leading:

IC50 [1] | IC50 [2] | IC50 [3] | IC50 [4] | IC50 [5] | IC50 [6] | Compound
360 nM | 12 nM | 18 nM | 1040 nM | 4 nM | 5 nM | Cc1nc(N)nc(N2C[C@@H](O)C[C@H]2c2nc3cccc(Cl)c3c(=O)n2-c2ccccc2)c1C#N
390 nM | 18 nM | 30 nM | – | – | 522 nM | Cc1nc(N)nc(N2CCC[C@H]2c2nc3ccc(F)c(C(F)(F)F)c3c(=O)n2-c2ccccc2)c1C#N
110 nM | 4 nM | 11 nM | 2370 nM | 6 nM | 35 nM | Cc1nc(N)nc(N2C[C@@H](O)C[C@H]2c2nc3ccc(F)c(C4CC4)c3c(=O)n2-c2ccccc2)c1C#N
540 nM | 24 nM | 180 nM | 3840 nM | 27 nM | 82 nM | Cc1nc(N)nc(N2CCC[C@H]2c2nc3cccc(C(F)(F)F)c3c(=O)n2-c2cccnc2)c1C#N
565 nM | 53 nM | 30 nM | 1320 nM | 6 nM | 38 nM | CO[C@H]1C[C@@H](c2nc3cccc(Cl)c3c(=O)n2-c2ccccc2)N(c2nc(N)nc(C)c2C#N)C1
290 nM | 46 nM | 52 nM | 2370 nM | 6 nM | 35 nM | N#Cc1c(N)nc(N)nc1N1CCC[C@H]1c1nc2cccc(C(F)(F)F)c2c(=O)n1-c1ccccc1
890 nM | 17 nM | 82 nM | 4440 nM | 37 nM | 164 nM | Cc1nc(N)nc(N2CCC[C@H]2c2nc3cccc(C(F)(F)F)c3c(=O)n2-c2cccc(F)c2)c1C#N
300 nM | 4 nM | 17 nM | > 10000 nM | 76 nM | 148 nM | CS(=O)(=O)N[C@H]1C[C@@H](c2nc3cccc(Cl)c3c(=O)n2-c2ccccc2)N(c2ncnc3[nH]cnc23)C1
780 nM | < 3 nM | 5 nM | – | 8 nM | 59 nM | Cc1nc(N)nc(N2C[C@@H](O)C[C@H]2c2nc3cccc(C(F)(F)F)c3c(=O)n2-c2ccccc2)c1C#N
280 nM | 13 nM | 14 nM | 1950 nM | 10 nM | 7 nM | Cc1nc(N)nc(N2C[C@@H](O)C[C@H]2c2nc3ccc(F)c(Cl)c3c(=O)n2-c2ccccc2)c1C#N
350 nM | 10 nM | 19 nM | > 10000 nM | < 3 nM | 59 nM | Nc1nc(N2CCC[C@H]2c2nc3cccc(Cl)c3c(=O)n2-c2ccccc2)c2ncsc2n1
590 nM | 10 nM | 47 nM | 2060 nM | 12 nM | 22 nM | Cc1nc(N)nc(N2C[C@@H](F)C[C@H]2c2nc3cccc(C(F)(F)F)c3c(=O)n2-c2ccccc2)c1C#N
580 nM | 7 nM | 490 nM | 2150 nM | 7 nM | – | CC1(n2c([C@@H]3CCCN3c3ncnc4[nH]cnc34)nc3cccc(Cl)c3c2=O)CC1
